Laboratory results: ChEMBL document CHEMBL1124402, “Potent angiotensin II antagonists with non-beta-branched amino acids in position 5” (1989)
Numbered stars: 1 amine (or outer) side, 2 acyl side, 3 side chain; on linkers, the order of the positions; unused ones are H or OH. Square brackets hold non-standard residues; d marks the D form. Peptide text beside a SMILES is read from it. X1 = CC(c1ccccc1)[C@H](N[*:1])C(=O)[*:2]; Thz(5,5-Me2) = CC1(C)SCN[C@@H]1C(=O)O; dThz(5,5-Me2) = CC1(C)SCN[C@H]1C(=O)O; Gly(cPent) = N[C@H](C(=O)O)C1CCCC1; hPhe = N[C@@H](CCc1ccccc1)C(=O)O; Chg = N[C@H](C(=O)O)C1CCCCC1; Pen = CC(C)(S)[C@H](N)C(=O)O; Nle = CCCC[C@H](N)C(=O)O; Abu = CC[C@H](N)C(=O)O; Sar = CNCC(=O)O

How the values were obtained:
Rattus norvegicus [1] = test: In vivo angiotensin II like activity determined in rat blood pressure assay measured as increase in BP by 1 ug iv of compound; format: functional
Rattus norvegicus [2] = test: In vivo antagonistic activity was measured in the rat blood pressure assay; format: functional
Oryctolagus cuniculus [3] = species: Oryctolagus cuniculus; test: In vitro antagonist activity was measured in rabbit aorta assay as pA2
Rattus norvegicus [4] = test: In vivo residual angiotensin II like activity in an rat blood pressure assay; format: functional; parameters: concentration or dose not given beside the values
Rattus norvegicus [5] = test: In vivo residual angiotensin II like activity in rat blood pressure assay; format: functional
Rattus norvegicus [6] = test: (§1) In vivo angiotensin II like activity expressed in rat blood pressure assay measured as increase in BP by 1 ug bolus intravenous injection of compound; format: functional
[7] = target: Type-1 angiotensin II receptor (Oryctolagus cuniculus) (UniProt P34976); test: In vitro antagonist activity of compound towards angiotensin II like was measured in rabbit aorta assay; conditions: target entry is the homologue from another species
[8] = target: Type-1 angiotensin II receptor (Oryctolagus cuniculus) (UniProt P34976); test: In vitro antagonist activity of compound towards angiotensin II like was measured in a rabbit aorta assay; conditions: target entry is the homologue from another species
Oryctolagus cuniculus [9] = species: Oryctolagus cuniculus; test: In vitro antagonist activity of compound towards angiotensin II like was measured in rabbit aorta assay; format: functional
[10] = target: T1, Type-2 angiotensin II receptor (Rattus norvegicus) (UniProt P35351); test: as §1; format: functional, organism-based
T1 sequence (whole entry): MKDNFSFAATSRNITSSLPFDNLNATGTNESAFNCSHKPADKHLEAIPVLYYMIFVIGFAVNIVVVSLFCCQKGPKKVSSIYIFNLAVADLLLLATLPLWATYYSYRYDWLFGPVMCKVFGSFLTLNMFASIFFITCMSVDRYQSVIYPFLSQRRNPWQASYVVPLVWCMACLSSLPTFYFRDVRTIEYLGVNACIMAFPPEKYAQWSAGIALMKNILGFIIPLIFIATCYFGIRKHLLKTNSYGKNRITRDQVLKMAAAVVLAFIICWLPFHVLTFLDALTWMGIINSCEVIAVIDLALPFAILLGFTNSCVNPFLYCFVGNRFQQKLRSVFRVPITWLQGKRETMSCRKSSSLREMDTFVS

Rattus norvegicus [11] = test: In vivo inhibitory activity against Residual angiotensin II in the rat blood pressure; format: functional

Chain of Type-1 angiotensin II receptor (Oryctolagus cuniculus) (P34976 whole entry, looked up): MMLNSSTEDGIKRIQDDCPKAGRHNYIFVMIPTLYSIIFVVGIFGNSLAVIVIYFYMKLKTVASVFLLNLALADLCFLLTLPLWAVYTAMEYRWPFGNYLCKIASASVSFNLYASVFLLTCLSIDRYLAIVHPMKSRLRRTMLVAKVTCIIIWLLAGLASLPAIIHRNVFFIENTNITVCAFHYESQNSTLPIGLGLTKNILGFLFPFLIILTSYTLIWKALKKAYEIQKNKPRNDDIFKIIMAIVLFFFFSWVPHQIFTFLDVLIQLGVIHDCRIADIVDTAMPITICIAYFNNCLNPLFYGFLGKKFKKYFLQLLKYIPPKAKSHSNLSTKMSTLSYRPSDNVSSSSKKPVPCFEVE

Molecule	BP (Rattus norvegicus [1])	ID50 (Rattus norvegicus [2])	Activity (Rattus norvegicus [4])	other results
CC[C@H](C)[C@H](NC(=O)[C@@H]1CCCN1C(=O)[C@H](Cc1c[nH]cn1)NC(=O)[C@H](NC(=O)[C@H](Cc1ccc(O)cc1)NC(=O)[C@@H](NC(=O)[C@H](CCCN=C(N)N)NC(=O)CNC)C(C)C)c1ccccc1)C(=O)O	8.5 mmHg	5.5 ng min-1 rat-1		pA2 (Oryctolagus cuniculus [3]): 9
H-NRVYYHPF-OH			0%	
H-NRVYAHPF-OH			3%	
H-NRVYPHPF-OH				Activity (Rattus norvegicus [5]): 10%
CCCC[C@H](NC(=O)[C@H](Cc1ccc(O)cc1)NC(=O)[C@@H](NC(=O)[C@H](CCCN=C(N)N)NC(=O)CNC)C(C)C)C(=O)N[C@@H](Cc1c[nH]cn1)C(=O)N1CCC[C@H]1C(=O)N[C@H](C(=O)O)[C@@H](C)CC (H-[Sar]RVY[Nle]HPI-OH)		20 ng min-1 rat-1		BP (Rattus norvegicus [6]): 20 mmHg; pA2 [7]: 8.85
CC[C@H](C)[C@H](NC(=O)[C@@H]1CCCN1C(=O)[C@H](Cc1c[nH]cn1)NC(=O)[C@H](CCCCN)NC(=O)[C@H](Cc1ccc(O)cc1)NC(=O)[C@@H](NC(=O)[C@H](CCCN=C(N)N)NC(=O)CNC)C(C)C)C(=O)O (H-[Sar]RVYKHPI-OH)		50 ng min-1 rat-1		BP (Rattus norvegicus [6]): 10 mmHg; pA2 [7]: 8.7
CC[C@H](C)[C@H](NC(=O)[C@@H]1CCCN1C(=O)[C@H](Cc1c[nH]cn1)NC(=O)[C@H](Cc1ccccc1)NC(=O)[C@H](Cc1ccc(O)cc1)NC(=O)[C@@H](NC(=O)[C@H](CCCN=C(N)N)NC(=O)CNC)C(C)C)C(=O)O (H-[Sar]RVYFHPI-OH)	7.5 mmHg	100 ng min-1 rat-1		pA2 (Oryctolagus cuniculus [3]): 9.15
H-NRVYVHPF-OH [ANGIOTENSIN AMIDE]				Activity (Rattus norvegicus [5]): 100%
CC[C@H](C)[C@H](NC(=O)[C@@H]1CCCN1C(=O)[C@H](Cc1c[nH]cn1)NC(=O)[C@H](Cc1ccc(O)cc1)NC(=O)[C@H](Cc1ccc(O)cc1)NC(=O)[C@@H](NC(=O)[C@H](CCCN=C(N)N)NC(=O)CNC)C(C)C)C(=O)O	2.5 mmHg	50 ng min-1 rat-1		pA2 (Oryctolagus cuniculus [3]): 9.6
CC[C@H](C)[C@H](NC(=O)[C@@H]1CCCN1C(=O)[C@H](Cc1c[nH]cn1)NC(=O)[C@H](Cc1c[nH]c2ccccc12)NC(=O)[C@H](Cc1ccc(O)cc1)NC(=O)[C@@H](NC(=O)[C@H](CCCN=C(N)N)NC(=O)CNC)C(C)C)C(=O)O	7.5 mmHg	50 ng min-1 rat-1		pA2 (Oryctolagus cuniculus [3]): 7.25
CC[C@H](C)[C@H](NC(=O)[C@@H]1CCCN1C(=O)[C@H](Cc1c[nH]cn1)NC(=O)[C@H](C)NC(=O)[C@H](Cc1ccc(O)cc1)NC(=O)[C@@H](NC(=O)[C@H](CCCN=C(N)N)NC(=O)CNC)C(C)C)C(=O)O (H-[Sar]RVYAHPI-OH)		50 ng min-1 rat-1		BP (Rattus norvegicus [6]): 5 mmHg; pA2 [8]: 7.5
CC[C@H](NC(=O)[C@H](Cc1ccc(O)cc1)NC(=O)[C@@H](NC(=O)[C@H](CCCN=C(N)N)NC(=O)[C@@H](N)CC(N)=O)C(C)C)C(=O)N[C@@H](Cc1c[nH]cn1)C(=O)N1CCC[C@H]1C(=O)N[C@@H](Cc1ccccc1)C(=O)O (H-NRVY[Abu]HPF-OH)			16%	
CNCC(=O)N[C@@H](CCCN=C(N)N)C(=O)N[C@H](C(=O)N[C@@H](Cc1ccc(O)cc1)C(=O)N[C@H](C(=O)N[C@@H](Cc1c[nH]cn1)C(=O)N1CCC[C@H]1C(=O)N[C@@H](Cc1ccccc1)C(=O)O)C(C)(C)SC)C(C)C (H-[Sar]RVY[Pen](Me)HPF-OH)	60 mmHg			
CO[C@H](C)[C@H](NC(=O)[C@H](Cc1ccc(O)cc1)NC(=O)[C@@H](NC(=O)[C@H](CCCN=C(N)N)NC(=O)[C@@H](N)CC(N)=O)C(C)C)C(=O)N[C@@H](Cc1c[nH]cn1)C(=O)N1CCC[C@H]1C(=O)N[C@@H](Cc1ccccc1)C(=O)O (H-NRVYT(Me)HPF-OH)			118%	
CC[C@H](C)[C@H](NC(=O)[C@@H]1CCCN1C(=O)[C@H](Cc1c[nH]cn1)NC(=O)[C@H](CCC(=O)O)NC(=O)[C@H](Cc1ccc(O)cc1)NC(=O)[C@@H](NC(=O)[C@H](CCCN=C(N)N)NC(=O)CNC)C(C)C)C(=O)O		100 ng min-1 rat-1		BP (Rattus norvegicus [6]): 2 mmHg; pA2 [7]: 9
CC[C@H](C)[C@H](NC(=O)[C@@H]1CCCN1C(=O)[C@H](Cc1c[nH]cn1)NC(=O)[C@@H](NC(=O)[C@H](Cc1ccc(O)cc1)NC(=O)[C@@H](NC(=O)[C@H](CCCN=C(N)N)NC(=O)CNC)C(C)C)C(C)c1ccccc1)C(=O)O (stereo not given in full) (H-[Sar]RVY[X1]HPI-OH)	10 mmHg	7.5 ng min-1 rat-1		pA2 (Oryctolagus cuniculus [3]): 9.3
CC[C@H](C)[C@H](NC(=O)[C@@H]1CCCN1C(=O)[C@H](Cc1c[nH]cn1)NC(=O)[C@@H](NC(=O)[C@H](Cc1ccc(O)cc1)NC(=O)[C@@H](NC(=O)[C@H](CCCN=C(N)N)NC(=O)CNC)C(C)C)[C@@H](C)CC)C(=O)O				pA2 (Oryctolagus cuniculus [9]): 9.1; BP [10]: 10.2 mmHg; ID50 (Rattus norvegicus [11]): 10 ng min-1 rat-1
CC[C@H](C)[C@H](NC(=O)[C@@H]1CCCN1C(=O)[C@H](Cc1c[nH]cn1)NC(=O)[C@H](Cc1c[nH]cn1)NC(=O)[C@H](Cc1ccc(O)cc1)NC(=O)[C@@H](NC(=O)[C@H](CCCN=C(N)N)NC(=O)CNC)C(C)C)C(=O)O	10 mmHg	5 ng min-1 rat-1		pA2 (Oryctolagus cuniculus [3]): 9
CCCC[C@H](NC(=O)[C@H](Cc1ccc(O)cc1)NC(=O)[C@@H](NC(=O)[C@H](CCCN=C(N)N)NC(=O)[C@@H](N)CC(N)=O)C(C)C)C(=O)N[C@@H](Cc1c[nH]cn1)C(=O)N1CCC[C@H]1C(=O)N[C@@H](Cc1ccccc1)C(=O)O (H-NRVY[Nle]HPF-OH)			21%	
CNCC(=O)N[C@@H](CCCN=C(N)N)C(=O)N[C@H](C(=O)N[C@@H](Cc1ccc(O)cc1)C(=O)N1CSC(C)(C)[C@@H]1C(=O)N[C@@H](Cc1c[nH]cn1)C(=O)N1CCC[C@H]1C(=O)N[C@@H](Cc1ccccc1)C(=O)O)C(C)C (H-[Sar]RVY[dThz(5,5-Me2)]HPF-OH)	100 mmHg			
CC[C@H](C)[C@H](NC(=O)[C@@H]1CCCN1C(=O)[C@H](Cc1c[nH]cn1)NC(=O)[C@H](CCCN=C(N)N)NC(=O)[C@H](Cc1ccc(O)cc1)NC(=O)[C@@H](NC(=O)[C@H](CCCN=C(N)N)NC(=O)CNC)C(C)C)C(=O)O (H-[Sar]RVYRHPI-OH)	10 mmHg	15 ng min-1 rat-1		pA2 (Oryctolagus cuniculus [3]): 9
CC[C@H](C)[C@H](NC(=O)[C@@H]1CCCN1C(=O)[C@H](Cc1c[nH]cn1)NC(=O)[C@H]1N(C(=O)[C@H](Cc2ccc(O)cc2)NC(=O)[C@@H](NC(=O)[C@H](CCCN=C(N)N)NC(=O)CNC)C(C)C)CSC1(C)C)C(=O)O (H-[Sar]RVY[Thz(5,5-Me2)]HPI-OH)		25 ng min-1 rat-1		BP (Rattus norvegicus [6]): 11.4 mmHg; pA2 [7]: 9
H-NRVYRHPF-OH			0%	
CC[C@H](C)[C@H](NC(=O)[C@@H]1CCCN1C(=O)[C@H](Cc1c[nH]cn1)NC(=O)[C@@H]1CCCN1C(=O)[C@H](Cc1ccc(O)cc1)NC(=O)[C@@H](NC(=O)[C@H](CCCN=C(N)N)NC(=O)CNC)C(C)C)C(=O)O (H-[Sar]RVYPHPI-OH)				pA2 (Oryctolagus cuniculus [9]): 8.7; BP (Rattus norvegicus [6]): 7 mmHg
H-NRVYLHPF-OH			25%	
CC[C@H](C)[C@H](NC(=O)[C@@H]1CCCN1C(=O)[C@H](Cc1c[nH]cn1)NC(=O)[C@H](CCc1ccccc1)NC(=O)[C@H](Cc1ccc(O)cc1)NC(=O)[C@@H](NC(=O)[C@H](CCCN=C(N)N)NC(=O)CNC)C(C)C)C(=O)O (H-[Sar]RVY[hPhe]HPI-OH)	10 mmHg	20 ng min-1 rat-1		pA2 (Oryctolagus cuniculus [3]): 7.75
CC(C)[C@H](NC(=O)[C@H](CCCN=C(N)N)NC(=O)[C@@H](N)CC(N)=O)C(=O)N[C@@H](Cc1ccc(O)cc1)C(=O)N[C@H](C(=O)N[C@@H](Cc1c[nH]cn1)C(=O)N1CCC[C@H]1C(=O)N[C@@H](Cc1ccccc1)C(=O)O)C1CCCC1 (H-NRVY[Gly(cPent)]HPF-OH)			89%	
CC(C)[C@H](NC(=O)[C@H](CCCN=C(N)N)NC(=O)[C@@H](N)CC(N)=O)C(=O)N[C@@H](Cc1ccc(O)cc1)C(=O)N[C@H](C(=O)N[C@@H](Cc1c[nH]cn1)C(=O)N1CCC[C@H]1C(=O)N[C@@H](Cc1ccccc1)C(=O)O)C1CCCCC1 (H-NRVY[Chg]HPF-OH)			114%	
CC[C@H](C)[C@H](NC(=O)[C@@H]1CCCN1C(=O)[C@H](Cc1c[nH]cn1)NC(=O)[C@@H](NC(=O)[C@H](Cc1ccc(O)cc1)NC(=O)[C@@H](NC(=O)[C@H](CCCN=C(N)N)NC(=O)CNC)C(C)C)C(C)(C)SC)C(=O)O (H-[Sar]RVY[Pen](Me)HPI-OH)		20 ng min-1 rat-1		BP (Rattus norvegicus [6]): 12.5 mmHg; pA2 [7]: 9
